The text below walks through data of ChEMBL document CHEMBL1134021, “Thienopyridines: nitric oxide synthase inhibitors with potent in vivo activity” (Bioorg Med Chem Lett, 2001).

Assay [1] concerns the target Nitric oxide synthase, inducible (Homo sapiens, UniProt P35228). Description: Ability to inhibit the conversion of [3H]L-Arg to [3H]L-citrulline catalyzed by i-NOS from human DLD-1 cells. It counts as functional, cell-based.
For a further assay, the target named is Nitric oxide synthase 1 (Rattus norvegicus, UniProt P29476). Description: Ability to inhibit the conversion of [3H]-L-Arg to [3H]L-citrulline catalyzed by n-NOS from rat cerebellum. Type of assay: functional, tissue-based.
In the next assay the test system is DLD-1. Description: Concentration required to inhibit nitric oxide synthesis in DLD-1 cells. It counts as functional, cell-based. The note with it: Homo sapiens.
In another assay the target is T1, Nitric oxide synthase 3 (Homo sapiens, UniProt P29474).
T1 sequence (P29474 whole entry): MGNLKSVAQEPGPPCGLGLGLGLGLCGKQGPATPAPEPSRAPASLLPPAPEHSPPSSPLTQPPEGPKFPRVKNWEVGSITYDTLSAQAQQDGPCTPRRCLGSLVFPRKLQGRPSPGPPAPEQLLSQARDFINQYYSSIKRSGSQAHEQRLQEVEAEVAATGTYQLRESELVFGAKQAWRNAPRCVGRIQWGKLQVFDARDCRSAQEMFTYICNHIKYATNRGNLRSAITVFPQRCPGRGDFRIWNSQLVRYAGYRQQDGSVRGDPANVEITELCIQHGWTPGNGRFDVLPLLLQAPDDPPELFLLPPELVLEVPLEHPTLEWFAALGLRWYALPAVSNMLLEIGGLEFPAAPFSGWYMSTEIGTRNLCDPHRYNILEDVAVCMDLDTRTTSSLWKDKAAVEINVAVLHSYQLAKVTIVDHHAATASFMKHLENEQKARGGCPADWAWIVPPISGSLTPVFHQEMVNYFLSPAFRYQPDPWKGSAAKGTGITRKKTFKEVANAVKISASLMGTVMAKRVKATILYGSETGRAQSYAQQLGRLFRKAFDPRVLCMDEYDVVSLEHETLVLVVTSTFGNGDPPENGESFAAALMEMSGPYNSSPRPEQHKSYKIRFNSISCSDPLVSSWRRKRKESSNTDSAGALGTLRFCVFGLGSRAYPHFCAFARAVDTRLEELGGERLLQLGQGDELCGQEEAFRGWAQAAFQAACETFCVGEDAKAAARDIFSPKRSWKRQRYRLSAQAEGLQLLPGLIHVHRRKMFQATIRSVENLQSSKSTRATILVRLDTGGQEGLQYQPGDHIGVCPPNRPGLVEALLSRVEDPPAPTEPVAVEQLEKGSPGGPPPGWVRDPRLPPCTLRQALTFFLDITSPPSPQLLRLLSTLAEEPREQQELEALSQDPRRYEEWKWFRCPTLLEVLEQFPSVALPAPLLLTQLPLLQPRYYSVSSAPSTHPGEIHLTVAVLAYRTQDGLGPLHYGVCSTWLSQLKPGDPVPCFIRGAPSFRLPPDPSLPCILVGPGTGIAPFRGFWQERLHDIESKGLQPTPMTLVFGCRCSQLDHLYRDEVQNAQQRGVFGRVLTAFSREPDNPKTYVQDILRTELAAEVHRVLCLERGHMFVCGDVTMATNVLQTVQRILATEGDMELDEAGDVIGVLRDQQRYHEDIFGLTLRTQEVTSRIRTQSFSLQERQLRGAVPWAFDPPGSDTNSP
Description: Ability to inhibit the conversion of [3H]L-Arg to [3H]L-citrulline catalyzed by e-NOS from HUVEC cells. Type of assay: functional, cell-based.

Assay [2] concerns Rattus norvegicus. Description: Dose required for half maximal increase in mean arterial blood pressure of 40 mmHg after 15 min in anaesthetised rats, as a measure of eNOS activity. Type of assay: functional.
Assay [3] deals with Rattus norvegicus. Description: In vivo inhibition of iNOS is determined from the inhibition of LPS-induced nitrite production measured in rat blood plasma at 3.2 umol/kg for 15 min. Type of assay: functional. The note with it: 0.25 h.
The test system of a further assay is HUVEC. Description: Ability to inhibit the conversion of [3H]L-Arg to [3H]L-citrulline catalyzed by e-NOS from HUVEC cells at 100 uM concentration. It counts as functional. The note with it: Homo sapiens.
The subject of assay [4] is Rattus norvegicus. Description: In vivo inhibition of iNOS is determined from the inhibition of LPS-induced nitrite production measured in rat blood plasma at 800 umol/kg for 15 min. It counts as functional. Conditions: 0.25 h.

Usually pIC50 stands for the IC50 on a negative log10 scale, so that one unit is a factor of ten. Read a low pIC50 as a large IC50. As usually defined, the ED50 is the midpoint of the dose-response relation. A low value points to greater potency. A word on the inhibition: it is the drop in the measured response relative to a control, in per cent. High values mean a strong effect, low ones a weak effect.

SMILES strings stand for the structures. pIC50: −log10 of the molar value.

Sequence of Nitric oxide synthase 1 (P29476 whole entry): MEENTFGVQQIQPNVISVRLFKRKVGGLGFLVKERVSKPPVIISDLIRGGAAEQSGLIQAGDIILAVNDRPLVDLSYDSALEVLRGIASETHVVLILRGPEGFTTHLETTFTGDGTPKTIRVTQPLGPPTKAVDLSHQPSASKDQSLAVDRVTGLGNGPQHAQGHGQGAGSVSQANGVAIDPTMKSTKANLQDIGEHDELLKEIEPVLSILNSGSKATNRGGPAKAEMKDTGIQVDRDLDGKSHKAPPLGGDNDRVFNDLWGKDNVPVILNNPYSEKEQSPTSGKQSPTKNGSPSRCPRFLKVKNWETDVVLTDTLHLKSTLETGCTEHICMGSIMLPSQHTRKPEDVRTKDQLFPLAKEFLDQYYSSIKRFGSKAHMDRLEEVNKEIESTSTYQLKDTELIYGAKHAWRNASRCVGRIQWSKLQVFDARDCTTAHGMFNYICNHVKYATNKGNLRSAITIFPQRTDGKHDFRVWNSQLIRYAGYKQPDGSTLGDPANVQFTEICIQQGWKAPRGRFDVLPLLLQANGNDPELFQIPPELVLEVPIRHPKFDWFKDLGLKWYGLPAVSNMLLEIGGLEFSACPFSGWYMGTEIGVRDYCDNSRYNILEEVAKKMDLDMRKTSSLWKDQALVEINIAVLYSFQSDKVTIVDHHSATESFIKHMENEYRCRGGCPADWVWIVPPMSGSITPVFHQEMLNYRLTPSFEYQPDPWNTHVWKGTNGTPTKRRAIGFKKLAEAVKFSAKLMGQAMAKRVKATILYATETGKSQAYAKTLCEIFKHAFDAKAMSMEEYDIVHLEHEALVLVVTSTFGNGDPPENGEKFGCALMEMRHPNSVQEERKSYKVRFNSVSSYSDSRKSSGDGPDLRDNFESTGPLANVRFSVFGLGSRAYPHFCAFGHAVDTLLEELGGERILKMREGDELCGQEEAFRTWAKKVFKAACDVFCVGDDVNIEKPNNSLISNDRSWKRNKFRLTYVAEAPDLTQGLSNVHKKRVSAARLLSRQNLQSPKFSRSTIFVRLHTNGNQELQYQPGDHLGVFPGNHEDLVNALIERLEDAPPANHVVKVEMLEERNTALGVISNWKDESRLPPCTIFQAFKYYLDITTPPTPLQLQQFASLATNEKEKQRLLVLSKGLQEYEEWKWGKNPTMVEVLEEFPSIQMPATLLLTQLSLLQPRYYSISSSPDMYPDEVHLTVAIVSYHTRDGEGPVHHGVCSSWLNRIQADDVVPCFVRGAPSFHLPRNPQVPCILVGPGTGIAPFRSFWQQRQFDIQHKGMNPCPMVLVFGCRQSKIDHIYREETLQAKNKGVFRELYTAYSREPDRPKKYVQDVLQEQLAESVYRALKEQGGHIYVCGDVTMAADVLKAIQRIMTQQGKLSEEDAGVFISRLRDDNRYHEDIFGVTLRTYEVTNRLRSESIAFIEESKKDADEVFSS
Sequence of Nitric oxide synthase, inducible (P35228 whole entry): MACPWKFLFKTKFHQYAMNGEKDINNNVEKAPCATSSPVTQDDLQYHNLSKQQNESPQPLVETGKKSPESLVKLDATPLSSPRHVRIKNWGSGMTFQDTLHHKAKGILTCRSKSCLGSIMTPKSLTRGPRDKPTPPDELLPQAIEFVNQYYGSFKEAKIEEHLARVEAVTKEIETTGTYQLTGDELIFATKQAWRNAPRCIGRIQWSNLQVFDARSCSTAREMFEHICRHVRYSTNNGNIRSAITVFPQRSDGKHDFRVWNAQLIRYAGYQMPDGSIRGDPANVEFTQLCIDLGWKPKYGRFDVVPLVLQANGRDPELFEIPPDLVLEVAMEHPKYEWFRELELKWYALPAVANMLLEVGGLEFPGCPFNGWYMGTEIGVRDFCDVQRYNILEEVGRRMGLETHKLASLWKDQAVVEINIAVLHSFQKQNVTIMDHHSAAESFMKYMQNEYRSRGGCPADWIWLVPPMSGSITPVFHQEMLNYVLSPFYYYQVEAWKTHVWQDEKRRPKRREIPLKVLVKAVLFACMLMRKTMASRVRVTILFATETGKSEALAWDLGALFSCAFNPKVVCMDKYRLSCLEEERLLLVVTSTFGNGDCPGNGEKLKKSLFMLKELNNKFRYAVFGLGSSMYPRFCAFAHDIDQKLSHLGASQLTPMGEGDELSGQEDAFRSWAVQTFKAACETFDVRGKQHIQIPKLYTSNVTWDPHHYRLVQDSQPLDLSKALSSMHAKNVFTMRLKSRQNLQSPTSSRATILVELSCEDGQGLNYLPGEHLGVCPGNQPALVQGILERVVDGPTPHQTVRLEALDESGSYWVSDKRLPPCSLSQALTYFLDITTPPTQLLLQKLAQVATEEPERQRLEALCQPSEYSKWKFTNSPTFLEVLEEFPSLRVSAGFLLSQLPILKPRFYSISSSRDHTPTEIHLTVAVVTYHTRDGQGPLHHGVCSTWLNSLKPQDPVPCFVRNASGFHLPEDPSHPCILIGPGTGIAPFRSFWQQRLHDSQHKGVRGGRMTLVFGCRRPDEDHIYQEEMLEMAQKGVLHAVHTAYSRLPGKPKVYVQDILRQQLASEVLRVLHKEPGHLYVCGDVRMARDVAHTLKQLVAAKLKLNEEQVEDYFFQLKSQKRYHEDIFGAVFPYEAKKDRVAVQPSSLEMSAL

Consider `NC1=NC(c2ccco2)Cc2ccsc21` (stereo not given), for which the pIC50 in assay [1] is 7.05; at Nitric oxide synthase 1, 7.40; in the assay on DLD-1, 5.66; on Nitric oxide synthase 3, 6.04. Moreover, the Dose in the assay on Rattus norvegicus [2] was 0.4 µM/kg. The compound further returned an ED50 in the assay with Rattus norvegicus [3] of 0.4 µmol/kg.

For the compound `C#CC1Cc2ccsc2C(N)=N1` (stereo not given), the pIC50 in assay [1] is 7.40; on Nitric oxide synthase 1 it was 8.22; with DLD-1, 5.24; at Nitric oxide synthase 3 it was 7.10.

For the compound `NC1=NCCc2sccc21`, the values for the pIC50 (in assay [1]; against Nitric oxide synthase 1) were 5.80 and 7.00, respectively.

On to `CC(C)(C)C#CC1Cc2ccsc2C(N)=N1` (stereo not given), for which the pIC50 in assay [1] was 5.44; at Nitric oxide synthase 1, 5.00. Besides, the inhibition at 100 µM in the assay with HUVEC is under 25%.

In the case of `CC#CC1Cc2ccsc2C(N)=N1` (stereo not given), the pIC50 in assay [1] was 6.82; against Nitric oxide synthase 1, 7.10; in the assay on DLD-1, 4.47; on Nitric oxide synthase 3, 5.30.

Regarding `NC1=NC(c2ccccc2)Cc2sccc21` (stereo not given), the results for the pIC50 (in assay [1]; against Nitric oxide synthase 1; on Nitric oxide synthase 3) were 5.57, 6.13 and 5.02, respectively.

For `NC1=NCCc2ccsc21`, the pIC50 in assay [1] was 6.14; at Nitric oxide synthase 1, 6.26; on Nitric oxide synthase 3 it was 6.55.

On to `NC1=NC(c2ccccc2)Cc2ccsc21` (stereo not given), for which the figures for the pIC50 (in assay [1]; at Nitric oxide synthase 1; against Nitric oxide synthase 3) were 5.08, 6.85 and 5.40, respectively.

`C#CC1Cc2cc(C)sc2C(N)=N1` (stereo not given): the pIC50 in assay [1] is 5.46; against Nitric oxide synthase 1 it was 6.04; on Nitric oxide synthase 3, 5.00.

As for `NC1=NC(c2cccs2)Cc2ccsc21` (stereo not given), the pIC50 in assay [1] was 6.82; on Nitric oxide synthase 1, 7.30; in the assay on DLD-1, 5.04; against Nitric oxide synthase 3 it was 5.72.

In the assay on DLD-1, `CNC(=N)NCCCC(N)C(=O)O` (single isomer, unassigned) [TILARGININE] gave a pIC50 of 3.77. In addition, the ED50 in the assay on Rattus norvegicus [4] came to 100 µmol/kg. Moreover, the Dose in the assay with Rattus norvegicus [2] amounted to 100 µM/kg.

For the compound `NC1=NC(C#Cc2ccccc2)Cc2ccsc21` (stereo not given), the pIC50 was 4.55 in assay [1] and 5.39 at Nitric oxide synthase 1. Moreover, the inhibition at 100 µM in the assay with HUVEC is under 25%.

Take `C#CC1Cc2sccc2C(N)=N1` (stereo not given): the pIC50 in assay [1] is 6.96; on Nitric oxide synthase 1, 7.60; in the assay with DLD-1, 4.82; against Nitric oxide synthase 3, 6.92.

With `NC1=NC(C2CC2)Cc2ccsc21` (stereo not given), the pIC50 in assay [1] was 7.29; on Nitric oxide synthase 1, 7.96; in the assay with DLD-1 it was 5.44; against Nitric oxide synthase 3 it was 7.30.

As for `NC1=NC(c2cccnc2)Cc2ccsc21` (stereo not given), the pIC50 in assay [1] was 5.55; against Nitric oxide synthase 1 it was 6.59.

`NC1=NC(C2CC2)Cc2sccc21` (stereo not given): the pIC50 in assay [1] is 6.72; on Nitric oxide synthase 1, 7.74; in the assay with DLD-1, 5.06; against Nitric oxide synthase 3, 6.12.
